Assay results as given in ChEMBL document CHEMBL4118081, “Design, synthesis, and biological evaluation of optimized phthalazine derivatives as hedgehog signaling pathway inhibitors” (Eur J Med Chem, 2017).
Active and inactive are the calls of the source. The rule behind the calls is not given here.

Experiments:
[1] = Inhibition of hedgehog signaling pathway in mouse NIH/3T3 Light2 cells by Gli-luciferase reporter gene assay; type: cell-based; conditions: NIH3T3
Medulloblastoma cell [2] = test: Antiproliferative activity against Ptch+/- and p53-/- mouse medulloblastoma cells after 36 hrs by Brdu incorporation assay; type: functional, cell-based
Medulloblastoma cell [3] = test: Antitumor activity against Ptch+/- and p53-/- mouse medulloblastoma cells allografted in athymic nude mouse assessed as tumor growth inhibition at 50 mg/kg, po bid administered daily via gavage for 13 days; type: functional, organism-based
[4] = Clearance in Sprague-Dawley rat at 2 mg/kg, iv administered as single dose; type: ADME, organism-based; conditions: in vivo
Medulloblastoma cell [5] = test: Antitumor activity against Ptch+/- and p53-/- mouse medulloblastoma cells allografted in athymic nude mouse assessed as tumor growth inhibition at 100 mg/kg, po qd administered daily via gavage for 13 days; type: functional, organism-based
[6] = Oral bioavailability in Sprague-Dawley rat at 10 mg/kg administered as single dose; type: ADME, organism-based; conditions: in vivo
Mus musculus = species on record: Mus musculus; test: Potency index, ratio of vismodegib IC50 to compound IC50 for hedgehog signaling pathway in mouse NIH/3T3 Light2 cells; type: cell-based
[7] = Cmax in Sprague-Dawley rat at 10 mg/kg, po administered as single dose; type: ADME, organism-based; set-up: dose 10 mg/kg, route oral; conditions: in vivo
[8] = Volume of distribution at steady state in Sprague-Dawley rat at 2 mg/kg, iv administered as single dose; type: ADME, organism-based; conditions: in vivo, read-out: Vdss
[9] = Half life in Sprague-Dawley rat at 2 mg/kg, iv administered as single dose; type: ADME, organism-based; conditions: in vivo
[10] = AUC (0 to infinity) in Sprague-Dawley rat at 10 mg/kg, po administered as single dose; type: ADME, organism-based; set-up: dose 10 mg/kg, time infinity, route oral; conditions: in vivo
[11] = AUC (0 to infinity) in Sprague-Dawley rat at 2 mg/kg, iv administered as single dose; type: ADME, organism-based; set-up: dose 2 mg/kg, time infinity, route intravenous; conditions: in vivo
[12] = Tmax in Sprague-Dawley rat at 10 mg/kg, po administered as single dose; type: ADME, organism-based; conditions: in vivo

SMILES | IC50 [1] [nM] | further results
CN(C(=O)c1ccc(F)cc1C(F)(F)F)C1CCN(c2nnc(-c3ccc(CO)cc3)c3ccccc23)C1 (racemic) | 1.36 | –
Cn1nccc1-c1nnc(N2CC(NC(=O)c3ccc(F)cc3C(F)(F)F)C2)c2ccccc12 | > 1000 | –
Cn1nccc1-c1nnc(NC2CCN(C(=O)c3ccc(F)cc3C(F)(F)F)C2)c2ccccc12 (racemic) | > 1000 | –
O=C(NC1CCN(c2nnc(NCc3ccccc3)c3ccccc23)C1)c1ccc(F)cc1C(F)(F)F (racemic) | > 100 | –
O=C(NC1CCN(c2nnc(-c3ccccc3Cl)c3ccccc23)C1)c1ccc(F)cc1C(F)(F)F (racemic) | 6.51 | –
CN(C(=O)c1ccc(F)cc1C(F)(F)F)C1CCN(c2nnc(-c3ccnn3C)c3ccccc23)CC1 [TALADEGIB] | 6.3 | TGI (Medulloblastoma cell [3]): Active; IC50 (Medulloblastoma cell [2]): 43.5 nM
Cc1ccc(-c2nnc(N3CCC(N(C)C(=O)c4ccc(F)cc4C(F)(F)F)C3)c3ccccc23)cc1 (racemic) | 2.93 | –
O=C(NC1CCN(c2nnc(-c3ccncc3)c3ccccc23)C1)c1ccc(F)cc1C(F)(F)F (racemic) | 10.7 | –
Cn1nccc1-c1nnc(N2CC3(CN(C(=O)c4ccc(F)cc4C(F)(F)F)C3)C2)c2ccccc12 | 442 | –
Cn1nccc1-c1nnc(N2CCC(NC(=O)c3ccc(F)cc3C(F)(F)F)C2)c2ccccc12 (racemic) | 4.75 | –
CS(=O)(=O)c1ccc(C(=O)Nc2ccc(Cl)c(-c3ccccn3)c2)c(Cl)c1 [VISMODEGIB] | 2.3 | IC50 (Medulloblastoma cell [2]): 30.4 nM
Cn1cc(-c2nnc(N3CCC(NC(=O)c4ccc(F)cc4C(F)(F)F)C3)c3ccccc23)cn1 (racemic) | > 100 | –
CN(C(=O)c1ccc(F)cc1C(F)(F)F)C1CCCN(c2nnc(-c3ccnn3C)c3ccccc23)C1 (racemic) | > 1000 | –
Cn1nccc1Nc1nnc(N2CCC(NC(=O)c3ccc(F)cc3C(F)(F)F)C2)c2ccccc12 (racemic) | > 100 | –
Cn1nccc1-c1nnc(N2CCCC(NC(=O)c3ccc(F)cc3C(F)(F)F)C2)c2ccccc12 (racemic) | > 1000 | –
O=C(NC1CCN(c2nnc(-c3ccccc3)c3ccccc23)C1)c1ccc(F)cc1C(F)(F)F (racemic) | 3.43 | –

Further lines, with some results ahead:

IC50 [1] [nM] | SMILES | further results
1.16 | Cc1ccc(-c2nnc(N3CC[C@@H](NC(=O)c4ccc(F)cc4C(F)(F)F)C3)c3ccccc23)cc1 | IC50 (Medulloblastoma cell [2]): 20.1 nM
0.88 | Cc1ccc(-c2nnc(N3CCC(NC(=O)c4ccc(F)cc4C(F)(F)F)C3)c3ccccc23)cc1 (racemic) | –
10.9 | O=C(NC1CCN(c2nnc(-c3ccc(Cl)cc3)c3ccccc23)C1)c1ccc(F)cc1C(F)(F)F (racemic) | –
14 | N#Cc1ccc(-c2nnc(N3CCC(NC(=O)c4ccc(F)cc4C(F)(F)F)C3)c3ccccc23)cc1 (racemic) | –
8.6 | CC(=O)c1ccc(-c2nnc(N3CCC(NC(=O)c4ccc(F)cc4C(F)(F)F)C3)c3ccccc23)cc1 (racemic) | –
> 100 | Cc1ccc(-c2nnc(N3CC[C@H](NC(=O)c4ccc(F)cc4C(F)(F)F)C3)c3ccccc23)cc1 | –
0.95 | O=C(NC1CCN(c2nnc(-c3ccc(CO)cc3)c3ccccc23)C1)c1ccc(F)cc1C(F)(F)F (racemic) | –
0.17 | O=C(N[C@@H]1CCN(c2nnc(-c3ccc(CO)cc3)c3ccccc23)C1)c1ccc(F)cc1C(F)(F)F | clearance [4]: 74.7 mL/min/kg; TGI (Medulloblastoma cell [5]): Active; bioavailability [6]: 7.4%; Ratio IC50 (Mus musculus): 23; Cmax [7]: 480 nM; Vd [8]: 1.47 L/kg; half-life [9]: 19.2 min; AUC(0-inf) [10]: 0.33 µM·h; AUC(0-inf) [11]: 0.88 µM·h; Tmax [12]: 15 min; TGI (Medulloblastoma cell [3]): Active; IC50 (Medulloblastoma cell [2]): 24.6 nM
> 100 | O=C(N[C@H]1CCN(c2nnc(-c3ccc(CO)cc3)c3ccccc23)C1)c1ccc(F)cc1C(F)(F)F | –
